Assays:
[1] = system: patients with acute manic (including mixed) episode, bipolar I disorder; assay: Adverse events, Studies BIA-2093-203 and BIA-2093-204 together (safety population); type: in vivo, human
Description: (§1) Medical history and demographic information was obtained at the screening visit. A complete physical and neurological examination was performed at screening, V7 or early discontinuation (EDV), V8 and post-study visit (PSV). Vital signs (pulse rate and blood pressure) were determined at every visit. […] Clinically significant abnormalities in laboratory tests, vital signs or 12-lead ECG were considered as AEs.
(§2) Safety was evaluated based on the occurrence of AEs. AEs were documented by the investigator with reference to intensity, dates of occurrence and resolution, outcome and relation to the treatment (causality). Furthermore, each AE was classified as being serious or non-serious. All patients with AEs were followed until their resolution. AEs were coded according to the Medical Dictionary for Regulatory Activities (MedDRA).
Three study populations were defined for the statistical analyses: safety, intent to treat (ITT), and per protocol (PP). The safety population consisted of all patients who received at least one dose of investigational product. The ITT population consisted of all randomised patients who had at least one post-baseline efficacy assessment. The PP population consisted of all patients who complied with the study protocol without major deviations.

[2] = leading to a better tolerability profile; cited from earlier work
[3] = system: patients with bipolar I disorder who responded to treatment in the acute phase studies; assay: Study BIA-2093-205: recurrence prevention study (2-week open-label Part I, double-blind fixed dose Part II); type: in vivo, human; conditions: for Patient worsening status according to CGI-BP Scale: No worsening / Patient worsening status according to CGI-BP Scale: Worsening: Part II; for Patient worsening status according to CGI-BP Scale: No worsening / Patient worsening status according to CGI-BP Scale: Worsening / median time to withdrawal / patients who withdrew / proportion of patients with MADRS scores ≧18 (depressive symptomatology) / proportion of patients with YMRS scores ≧15 (manic symptomatology) / mean (SD) highest mood scores (patient e-diary, 100-point visual analogue scale) / mean (SD) overall lowest mood scores (patient e-diary, 100-point visual analogue scale): ITT; for mean (SD) highest mood scores (patient e-diary, 100-point visual analogue scale) / mean (SD) overall lowest mood scores (patient e-diary, 100-point visual analogue scale) / patients who withdrew (AE section; withdrawing because of AEs): double-blind period
Description: Part I followed an open-label design in which all participants received treatment with ESL 900 mg QD for 2 weeks. Part II followed a double-blind, parallel-group, fixed multiple dose design in which participants were randomly assigned (1:1:1) to one of the following treatment groups: (1) ESL 1800 mg QD, (2) ESL 900 mg QD, and (3) ESL 300 mg QD. […] The occurrence of a new manic/depressive episode was considered a treatment failure, and the patient was discontinued from the study.
If the patient had—in change from preceding phase scale—a score of 5, 6, or 7 in any of 3 categories (mania, depression, or overall bipolar disorder), the illness was considered to have worsened. Secondary efficacy variables included: proportion of patients developing manic symptomatology (YMRS score ≧15); proportion of patients developing depressive symptomatology (MADRS score ≧18); the highest and lowest mood state, collected in the patient diary card; and time to withdrawal. All efficacy assessments were evaluated at each study visit.
Mood was self-evaluated in a 100-point visual analogue scale using the DiaryPRO™ software (Invivodata®, Inc.) implemented on a touch-screen device (Palm™ OS). Patients completed their training in the e-diary use in V1 and were assisted by the study staff when necessary. Data were collected and transferred from the patient's home to the study server on a daily basis.
as §1, §2
Proportions of patients were compared between treatment groups using a Cochran-Mantel-Haenszel (CMH) test stratified by region. […] In all analyses, if the treatment effect was significant (p<0.05) pairwise comparisons were to be performed to assess the differences.
Changes in total YMRS, CGI-BP and MADRS scores were tested by analysis of covariance (ANCOVA) using baseline score value, region, treatment and region-by-treatment interaction as covariates; Dunnett's multiple comparison procedure was used for the comparison of the treatment means. ANCOVA was used to evaluate the change in YMRS score from baseline to the end of the 3-week treatment period, the CGI-BP score at the end of the 3-week treatment period, the MADRS score at the end of the 3-week treatment period, and the highest and lowest mood states (the mean highest and lowest score for each patient was calculated for intervals of 28 calendar days).
Survival analysis was performed using log-rank test/Kaplan-Meier and Cox proportional hazards model.

[4] = ESL 600 mg, n = 72, Studies 203 and 204
[5] = Part II Double-Blind Period, ESL 300 mg, n = 35
[6] = Part II Double-Blind Period, ESL 900 mg, n = 26
[7] = Part II Double-Blind Period, ESL 1800 mg, n = 26

CC(=O)O[C@H]1Cc2ccccc2N(C(N)=O)c2ccccc21 [ESL, (S)-10-acetoxy-10,11-dihydro-5H-dibenz[b,f]azepine-5-carboxamide]
serious AE: leukopenia and hyponatremia ([1]; ESL 600 mg): 1 case
Any Adverse Events [1, 4]: 38 (52.8) Number (%) of patients
Diarrhoea [1, 4]: 8 (11.1) Number (%) of patients
Dizziness [1, 4]: 7 (9.7) Number (%) of patients
Headache [1, 4]: 8 (11.1) Number (%) of patients
Nausea [1, 4]: 2 (2.8) Number (%) of patients
Paraesthesia oral [1, 4]: 0 (0.0) Number (%) of patients
Somnolence [1, 4]: 2 (2.8) Number (%) of patients
Vomiting [1, 4]: 4 (5.6) Number (%) of patients
incidence of treatment-related AEs ([1]; studies BIA-2093-203 and BIA-2093-204, comparable between treatment groups): < 35 % of patients
production of toxic metabolites compared to carbamazepine [2]: reduced production of toxic metabolites
Patient worsening status according to CGI-BP Scale: No worsening ([3]; ESL 300 mg QD, n = 34): 26 (76.5) n (%)
Patient worsening status according to CGI-BP Scale: Worsening ([3]; ESL 300 mg QD, n = 34): 6 (17.6) n (%)
serious AE: mania ([3]; ESL 300 mg group): 2 cases
proportion of patients who prematurely discontinued ([3]; ESL 300 mg group (n=19)): 54.3%
median time to withdrawal ([3]; ESL 300 mg group): 254 days
patients who withdrew ([3]; ESL 300 mg group): 52.9%
proportion of patients with MADRS scores ≧18 (depressive symptomatology) ([3]; ESL 300 mg): 14.7%
proportion of patients with YMRS scores ≧15 (manic symptomatology) ([3]; ESL 300 mg): 8.8%
mean (SD) highest mood scores (patient e-diary, 100-point visual analogue scale) ([3]; ESL 300 mg): 49.2 (11.0)
mean (SD) overall lowest mood scores (patient e-diary, 100-point visual analogue scale) ([3]; ESL 300 mg): 45.9 (10.4)
Patient worsening status according to CGI-BP Scale: No worsening ([3]; ESL 900 mg QD, n = 25): 14 (56.0) n (%)
Patient worsening status according to CGI-BP Scale: Worsening ([3]; ESL 900 mg QD, n = 25): 10 (40.0) n (%)
serious AE: anaemia ([3]; ESL 900 mg group): 1 case
serious AE: disease progression ([3]; ESL 900 mg group): 1 case
serious AE: oesophageal stenosis ([3]; ESL 900 mg group): 1 case
serious AE: pneumonia ([3]; ESL 900 mg group): 1 case
proportion of patients who prematurely discontinued ([3]; ESL 900 mg group (n=14)): 53.8%
median time to withdrawal ([3]; ESL 900 mg group): 295 days
patients who withdrew ([3]; ESL 900 mg group): 52.0%
proportion of patients with MADRS scores ≧18 (depressive symptomatology) ([3]; ESL 900 mg): 0.0%
proportion of patients with YMRS scores ≧15 (manic symptomatology) ([3]; ESL 900 mg): 16.0%
mean (SD) highest mood scores (patient e-diary, 100-point visual analogue scale) ([3]; ESL 900 mg): 50.6 (6.4)
mean (SD) overall lowest mood scores (patient e-diary, 100-point visual analogue scale) ([3]; ESL 900 mg): 47.3 (12.4)
Patient worsening status according to CGI-BP Scale: No worsening ([3]; ESL 1800 mg QD, n = 26): 16 (61.5) n (%)
Patient worsening status according to CGI-BP Scale: Worsening ([3]; ESL 1800 mg QD, n = 26): 6 (23.1) n (%)
serious AE: bronchitis ([3]; ESL 1800 mg group): 1 case
serious AE: depression ([3]; ESL 1800 mg group): 1 case
serious AE: disease progression ([3]; ESL 1800 mg group): 1 case
proportion of patients who prematurely discontinued ([3]; ESL 1800 mg group (n=19)): 73.1%
median time to withdrawal ([3]; ESL 1800 mg group): 109 days
patients who withdrew ([3]; ESL 1800 mg group): 73.1%
proportion of patients with MADRS scores ≧18 (depressive symptomatology) ([3]; ESL 1800 mg): 11.5%
proportion of patients with YMRS scores ≧15 (manic symptomatology) ([3]; ESL 1800 mg): 19.2%
mean (SD) highest mood scores (patient e-diary, 100-point visual analogue scale) ([3]; ESL 1800 mg): 55.1 (10.4)
mean (SD) overall lowest mood scores (patient e-diary, 100-point visual analogue scale) ([3]; ESL 1800 mg): 51.1 (12.3)
patients who showed no worsening according to the CGI-BP scale ([3]; ITT population, all treatment groups (300, 900, 1800 mg), no significant dose difference (p=0.250)): at least 50%
Any Adverse Events ([3]; Part I Open-Label Period, ESL 900 mg, n = 104): 20 (19.2) Number (%) of patients
Agitation [3, 5]: 2 (5.7) Number (%) of patients
Any Adverse Events [3, 5]: 14 (40.0) Number (%) of patients
Aspartate amino-transferase increased [3, 5]: 0 (0.0) Number (%) of patients
Blood creatine phosphokinase increased [3, 5]: 1 (2.9) Number (%) of patients
Bronchitis [3, 5]: 0 (0.0) Number (%) of patients
Depression [3, 5]: 3 (8.6) Number (%) of patients
Dizziness [3, 5]: 0 (0.0) Number (%) of patients
Mania [3, 5]: 2 (5.7) Number (%) of patients
Nausea [3, 5]: 0 (0.0) Number (%) of patients
Sinus tachycardia [3, 5]: 2 (5.7) Number (%) of patients
Agitation [3, 6]: 0 (0.0) Number (%) of patients
Any Adverse Events [3, 6]: 14 (53.8) Number (%) of patients
Aspartate amino-transferase increased [3, 6]: 0 (0.0) Number (%) of patients
Blood creatine phosphokinase increased [3, 6]: 0 (0.0) Number (%) of patients
Bronchitis [3, 6]: 1 (3.8) Number (%) of patients
Depression [3, 6]: 3 (11.5) Number (%) of patients
Dizziness [3, 6]: 0 (0.0) Number (%) of patients
Mania [3, 6]: 0 (0.0) Number (%) of patients
Nausea [3, 6]: 0 (0.0) Number (%) of patients
Sinus tachycardia [3, 6]: 1 (3.8) Number (%) of patients
Agitation [3, 7]: 1 (3.8) Number (%) of patients
Any Adverse Events [3, 7]: 18 (69.2) Number (%) of patients
Aspartate amino-transferase increased [3, 7]: 2 (7.7) Number (%) of patients
Blood creatine phosphokinase increased [3, 7]: 3 (11.5) Number (%) of patients
Bronchitis [3, 7]: 2 (7.7) Number (%) of patients
Depression [3, 7]: 1 (3.8) Number (%) of patients
Dizziness [3, 7]: 3 (11.5) Number (%) of patients
Mania [3, 7]: 0 (0.0) Number (%) of patients
Nausea [3, 7]: 3 (11.5) Number (%) of patients
Sinus tachycardia [3, 7]: 0 (0.0) Number (%) of patients
deaths ([3]; all treatment groups): No deaths occurred
patients who withdrew (AE section; withdrawing because of AEs) ([3]; ESL 300 mg group (n=3)): 8.6%
patients who withdrew (AE section; withdrawing because of AEs) ([3]; ESL 900 mg group (n=3)): 11.5%
patients who withdrew (AE section; withdrawing because of AEs) ([3]; ESL 1800 mg group (n=1)): 3.8%
patients with AEs ([3]; open-label period, ESL 900 mg QD (20 patients)): 19.2%
number of AEs reported ([3]; open-label period, ESL 900 mg QD, in 20 patients): 42 AEs
premature discontinuation because of treatment failure ([3]; overall (n=22), similar proportions between treatment groups): 21.2%
patients completed 6 months of treatment ([3]; overall, of 104 patients enrolled in Part I (n=35)): 33.7%
incidence of treatment-related AEs ([3]; recurrence prevention study, comparable between treatment groups): < 25 % of patient

Source: patent publication US20160051560A1, “TREATMENTS INVOLVING ESLICARBAZEPINE OR ESLICARBAZEPINE ACETATE” (BIAL - PORTELA & Cª, S.A., priority 2013, published 2016)
